What was measured:
Activated CDK2/CyclinA = Activated CDK2/CyclinA (Homo sapiens, UniProt P24941); assay: Activated CDK2/CyclinA kinase inhibitory activity assay (IC50), Example 250A; format: biochemical
Procedure: Compounds of the invention were tested for kinase inhibitory activity using the following protocol.
The reaction is allowed to proceed for 2 to 4 hours before being stopped with an excess of ortho-phosphoric acid (5 μl at 2%).
γ^33P-ATP which remains unincorporated into the histone H1 is separated from phosphorylated histone H1 on a Millipore MAPH filter plate. The wells of the MAPH plate are wetted with 0.5% orthophosphoric acid, and then the results of the reaction are filtered with a Millipore vacuum filtration unit through the wells. Following filtration, the residue is washed twice with 200 μl of 0.5% orthophosphoric acid. Once the filters have dried, 20 μl of Microscint 20 scintillant is added, and then counted on a Packard Topcount for 30 seconds.

[1] = tested on: human colon carcinoma cell line HCT 116; assay: Anti-proliferative activity, Alamar Blue assay; format: cell-based; settings: 72 hours compound incubation, read-out: IC50, inhibition of cell growth, HCT 116
Procedure: The anti-proliferative activities of the combinations of the invention, as well as the individual components of the combinations, are determined by measuring the ability of the compounds to inhibition of cell growth in a number of cell lines. Inhibition of cell growth is measured using the Alamar Blue assay (Nociari, M. M, Shalev, A., Benias, P., Russo, C. Journal of Immunological Methods 1998, 213, 157-167). The method is based on the ability of viable cells to reduce resazurin to its fluorescent product resorufin. For each proliferation assay cells are plated onto 96 well plates and allowed to recover for 16 hours prior to the addition of inhibitor compounds for a further 72 hours. At the end of the incubation period 10% (v/v) Alamar Blue is added and incubated for a further 6 hours prior to determination of fluorescent product at […]. In the case of the non-proliferating cell assay cells are maintained at confluence for 96 hour prior to the addition of inhibitor compounds for a further 72 hours. The number of viable cells is determined by Alamar Blue assay as before. All cell lines are obtained from ECACC (European Collection of cell Cultures).

SMILES | IC50 (Activated CDK2/CyclinA) | IC50 [1]
Cc1nn(C)c(C)c1CNC(=O)c1n[nH]cc1NC(=O)c1c(F)cccc1F [Example 99] | < 20 µM | < 100 µM
CN(C)[C@H]1CC[C@H](NC(=O)c2n[nH]cc2NC(=O)c2c(F)cccc2F)CC1 [Example 124] | < 20 µM | < 20 µM
CN1CCC(NC(=O)c2n[nH]cc2NC(=O)c2c(Cl)cccc2Cl)CC1 [Example 187] | < 20 µM | < 20 µM
CN1CCC(NC(=O)c2n[nH]cc2NC(=O)c2cc(Cl)ccc2Cl)CC1 [Example 212] | < 20 µM | < 20 µM
O=C(Nc1c[nH]nc1C(=O)NC1CCNCC1)c1ccccc1N1CCOCC1 [Example 199] | < 20 µM | < 20 µM
O=C(NCc1cccnc1)c1n[nH]cc1NC(=O)c1c(F)cccc1F [Example 103] | < 20 µM | < 20 µM
O=C(Nc1c[nH]nc1C(=O)N[C@H]1CC[C@H](O)CC1)c1cccc2c1OCCO2 [Example 159] | < 20 µM | < 20 µM
O=C(NC1CCNCC1)c1n[nH]cc1NC(=O)c1c(F)cc(F)cc1F [Example 148] | < 20 µM | < 20 µM
O=C(Nc1c[nH]nc1C(=O)NCC1CC1)c1ccc(N2CCOCC2)cc1Cl [Example 182] | < 20 µM | < 100 µM
O=C(Nc1c[nH]nc1C(=O)NCC1CC1)c1cccc2c1OCCO2 [Example 178] | < 20 µM | < 20 µM
CN1CCN([C@H]2CC[C@H](NC(=O)c3n[nH]cc3NC(=O)c3c(F)cccc3F)CC2)CC1 [Example 117] | < 20 µM | < 20 µM
CC(C)(C)OC(=O)N1CCC(NC(=O)c2n[nH]cc2NC(=O)c2c(F)cc(F)cc2F)CC1 [Example 136] | < 20 µM | < 20 µM
COCCN1CCC(NC(=O)c2n[nH]cc2NC(=O)c2c(F)cccc2F)CC1 [Example 125] | < 20 µM | < 20 µM
O=C(NC1CCN(CC2CCOC2)CC1)c1n[nH]cc1NC(=O)c1c(F)cccc1F (centres unmarked) [Example 133] | < 20 µM | < 20 µM
COc1ccccc1C(=O)Nc1c[nH]nc1C(=O)NC1CCNCC1 [Example 190] | < 20 µM | < 20 µM
CC(C)(C)N1CCC(NC(=O)c2n[nH]cc2NC(=O)c2c(F)cccc2F)CC1 [Example 179] | < 20 µM | < 20 µM
O=C(NC1CCN(CC2CC2)CC1)c1n[nH]cc1NC(=O)c1c(F)cccc1F [Example 109] | < 20 µM | < 20 µM
O=C(Nc1c[nH]nc1C(=O)NC1CCNCC1)c1ccccc1Br [Example 201] | < 20 µM | < 20 µM
CC1CCC(NC(=O)c2n[nH]cc2NC(=O)c2c(F)cccc2F)CC1 (centres unmarked) [Example 113] | < 20 µM | < 20 µM
CCOc1ccccc1C(=O)Nc1c[nH]nc1C(=O)NC1CCNCC1 [Example 198] | < 20 µM | < 20 µM
CN1CCC(NC(=O)c2n[nH]cc2NC(=O)c2c(F)cccc2Cl)CC1 [Example 186] | < 20 µM | < 20 µM
COc1cccc(F)c1C(=O)Nc1c[nH]nc1C(=O)NC1CCN(C)CC1 [Example 202] | < 20 µM | < 20 µM
CS(=O)(=O)NC[C@H]1CC[C@H](NC(=O)c2n[nH]cc2NC(=O)c2c(F)cccc2F)CC1 [Example 164] | < 20 µM | < 20 µM
COc1cccc(F)c1C(=O)Nc1c[nH]nc1C(=O)N[C@H]1CC[C@H](O)CC1 [Example 154] | < 20 µM | < 20 µM
COc1cscc1C(=O)Nc1c[nH]nc1C(=O)N[C@H]1CC[C@H](O)CC1 [Example 158] | < 20 µM | < 20 µM
O=C(Nc1ccccc1)Nc1c[nH]nc1C(=O)N[C@H]1CC[C@H](O)CC1 [Example 156] | < 20 µM | –
O=C(N[C@@H]1CCNC1)c1n[nH]cc1NC(=O)c1c(F)cccc1F [Example 185] | < 20 µM | –
CO[C@H]1CC[C@H](NC(=O)c2n[nH]cc2NC(=O)c2c(Cl)cccc2Cl)CC1 [Example 210] | < 20 µM | –
